Tests used:
Type in all cases: in vivo, mouse
[1] = test system: human AT; assay: Serum levels of human ATZ in PiZ mice by ELISA; settings: CBZ 250 mg/kg/day for 2 weeks
Protocol: For ELISA on mouse serum specimens, Nunc Maxisorp plates were first coated with goat anti-human AT (Bethyl), then blocked in PBS-Tween20 containing 5% nonfat milk. Serum samples were loaded into the wells in 1:20,000 dilution using purified human AT serial dilutions (1.56 to 100 ng/ml) as a standard. Rabbit-anti human AT (Dako) was used as […], and goat anti-rabbit IgG-HRP (Dako) a secondary antibody. Protein levels were detected with OPD (Sigma).

[2] = test system: PiZ mice; assay: Hepatic fibrosis in PiZ mice (Sirius Red, hepatic hydroxyproline)
Excerpt: Transgenic Mice PiZ mice that have been bred into the C57/BL6 background have been described previously (1). For the second and third series of experiments with CBZ we used PiZ mice that were re-derived onto the FVB/N background for a move into a new animal facility. The transgene that was used to generate the PiZ mouse is a genomic fragment of DNA that contains the coding regions of the ATZ gene together with introns and ˜2 kilobases of upstream and downstream flanking regions (10). […] In this perspective it is not an exact phenocopy of the classical form of AT deficiency. In particular it cannot be a model for the loss-of-function mechanisms associated with the classical form of AT deficiency. It is known to have abundant expression of ATZ in hepatocytes and other cell types that express ATZ in humans (11). In the liver there are abundant ATZ-containing intrahepatocytic globules and inflammation that is characteristic of what is seen in the human liver (11,12). […] Taken together, these observations indicate that the PiZ mouse is an appropriate model for the gain-of-toxic function mechanism that is responsible for liver damage in the classical form of AT deficiency. Indeed, the fact that these mice are endowed with endogenous AT function and therein normal levels of AT in the serum and body fluids make them an even more ‘pure’ model for liver damage by gain-of-toxic function. PiZ×GFP-LC3 mice, which generated green fluorescent autophagosomes, have been described previously (2). PiZ×IKKβ.hep were generated by mating of PiZ to IKKβ.hep, which has conditional hepatocyte-specific disruption of NF.B activation (M. Karin, 17). There is increased injury in the liver of these mice as evidenced by the hepatic hydroxyproline content, 153.3% of that in the PiZ mouse (FIG. 7).
Histology Sections of liver tissue were stained with hematoxylin and eosin, PAS, PAS after diastase treatment, TUNEL, PCNA, Ki67 and Sirius Red using standard techniques (18). Previous methods for staining with antibody to smooth muscle actin were used (19). Each was examined by the pathologist (GM) who was completely blinded to the experimental protocol. Sections of liver tissue were also stained with goat anti-human AT followed by donkey anti-goat Cy3 to detect AT-containing intracellular globules. Finally sections of liver tissue were stained with anti-GFP to optimize the detection of green fluorescent autophagosomes. The number of inflammatory nodules, AT-containing globules and autophagosomes were each quantified blindly by counting cells in 6 microscopic fields of 10 different sections for each liver. The number of nuclei, as determined by Hoechst staining, was used to exclude the possibility that different numbers of cells were counted in liver sections from mice treated with CBZ as compared to controls. Hepatic hydroxyproline concentration was determined by a well-established protocol (20,21).
Therapeutic regimens For the initial series of experiments in mice in vivo, the dose of 250 mg/kg/day for CBZ was based on previous studies of its biological effects in mice (22,23). […] CBZ was administered in DMSO by gavage once per day. Control mice were given an equivalent volume of DMSO by gavage. In a second series of experiments, doses of 200, 100 and 50 mg/kg/day of CBZ were administered for 6 weeks. The dose and route of administration of RAP, 2 mg/kg/day by intraperitoneal injection for 2 weeks, was based on previous studies that have shown activation of hepatic autophagy (24).

[3] = test system: smooth muscle actin, collagen IA and TGFβ mRNA; assay: Stellate cell activation markers in liver of PiZ mice by Q-PCR
Protocol: Quantitative PCR (Q-PCR) Levels of mRNA from smooth muscle actin, collagen IA and TGFβ in liver of PiZ mice were determined by Q-PCR using primers from ABI and previous described conditions (19).

[4] = test system: PiZ mice; assay: Pulmonary fibrosis in PiZ mice (Sirius Red staining with quantitative morphometry); settings: 3-month-old PiZ mice, 200 mg/kg/day, 5 days per week for 3 weeks
Protocol: Experiments were performed to determine if CBZ can mediate a decrease in lung fibrosis in the PiZ mouse in vivo. 3-month-old PiZ mice were treated 5 days per week for 3 weeks with diluent DMSO or CBZ 200 mg/kg/day (n=3-8 mice per group). In this series of experiments lung fibrosis was assayed by Sirius Red staining with quantitative morphometry.

## NC(=O)N1c2ccccc2C=Cc2ccccc21 [CBZ, 5H-dibenz [b,f]azepine-5-carboxamide]
[1]
  serum concentrations of human AT: not significantly affected
[2]; 200 mg kg-1 day-1 for 6 weeks
  hepatic hydroxyproline concentrations: decreased
[2]; 250 mg kg-1 for 2 weeks, FIG. 4E
  hepatic fibrosis (Sirius red): marked decrease
[2]; PiZ mice vs untreated PiZ, FIG. 7
  decrease of hepatic hydroxyproline content: 46.7%
[2]; PiZ mice, 6 weeks
  lowest effective dose (hepatic hydroxyproline): 200 mg/kg/day
[2]; PiZ mice, mean±SD, control 2.27±1.02, P=0.0074
  hepatic hydroxyproline concentration: 1.21 ± 0.7 µg/mg dry weight
[3]; not statistically significant
  collagen 1A level: decreased
  transforming growth factor b level: decreased
[3]; reached statistical significance
  smooth muscle actin level: decreased
[4]
  Sirius red staining of lung (pulmonary fibrosis): statistically significant reduction

— patent US9511074B2, “Methods of treating disorders associated with protein polymerization” (UNIVERSITY OF PITTSBURGH—OF THE COMMONWEALTH SYSTEM OF …, priority 2009, dated 2016)
